The source of these data is patent US12404239B2, “Modulators of BCL6 as ligand directed degraders” (Celgene Corporation, priority 2022, dated 2025).

The structures appear in SMILES notation. Some results are limits rather than exact numbers.

This assay concerns the target T1, BCL6 (Homo sapiens, UniProt P41182).
T1 construct: HiBiT-tag knocked into endogenous BCL6 locus using CRISPR; endogenous in cells; host or cells: DHL-4_BCL6_HiBiT cells (CRISPR knock-in)
Kind of assay: BCL6_HiBiT degradation assay (2 h). Format: cell-based. To be noted: DHL-4_BCL6_HiBiT cells, read-out: YCon (% remaining maximal effect). Summed up:
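DHL-4 cells carrying CRISPR HiBiT knock-in at endogenous BCL6, treated 2 h at 37 °C with 10-point 3-fold dilutions from 1-10 μM. BCL6 level read by Nano-Glo HiBiT lytic luminescence normalized to DMSO; four-parameter fit gives degradation EC50 and Yconstant (% remaining at maximal effect).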
For the molecule `CN1C(=O)Cc2cc(Nc3nc(N4CC[C@H](Nc5ccc6c(C7CCC(=O)NC7=O)nn(C)c6c5)[C@H](CO)C4)ncc3Cl)ccc21` (stereo partly drawn) [Example 58, 3-(6-(((3R,4S)-1-(5-chloro-4-((1-methyl-2-oxoindolin-5-yl)amino)pyrimidin-2-yl)-3-(hydroxymethyl)piperidin-4-yl)amino)-1-methyl-1H-indazol-3-yl)piperidine-2,6-dione], the Percent BCL6 remaining at maximal degradation (Ycon) fell in the range of 20 to 60%.

For the molecule `Cc1nc(N2CC[C@@H](Nc3ccc4c(C5CCC(=O)NC5=O)nn(C)c4c3)[C@H](C)C2)nc(Nc2ccc3c(c2)CC(=O)N3C)c1Cl` (stereo partly drawn) [Example 122, 3-(6-(((3R,4R)-1-(5-chloro-4-methyl-6-((1-methyl-2-oxoindolin-5-yl)amino)pyrimidin-2-yl)-3-methylpiperidin-4-yl)amino)-1-methyl-1H-indazol-3-yl)piperidine-2,6-dione], the Percent BCL6 remaining at maximal degradation (Ycon) is less than 20%.

With `CC1CN(c2ncc(Cl)c(Nc3ccc4c(c3)CC(=O)N4C)n2)CC(=O)N1c1ccc2c(C3CCC(=O)NC3=O)nn(C)c2c1` (stereo not shown) [Example 5, 3-(6-(4-(5-chloro-4-((1-methyl-2-oxoindolin-5-yl)amino)pyrimidin-2-yl)-2-methyl-6-oxopiperazin-1-yl)-1-methyl-1H-indazol-3-yl)piperidine-2,6-dione], the Percent BCL6 remaining at maximal degradation (Ycon) was greater than 60%.

Consider `CNCCN1C(=O)Cc2cc(Nc3nc(N4CC[C@@H](Nc5ccc6c([C@@H]7CCC(=O)NC7=O)nn(C)c6c5)[C@H](C)C4)ncc3Cl)ccc21` (single isomer, unassigned) [Example 106], for which the Percent BCL6 remaining at maximal degradation (Ycon) is less than 20%.

With `CN1C(=O)Cc2cc(Nc3nc(N4CCC(c5ccc6c(C7CCC(=O)NC7=O)nn(C)c6c5)CC4)ncc3Cl)ccc21` (stereo not shown) [Example 125, 3-(6-(1-(5-Chloro-4-((1-methyl-2-oxoindolin-5-yl)amino)pyrimidin-2-yl)piperidin-4-yl)-1-methyl-1H-indazol-3-yl)piperidine-2,6-dione], the Percent BCL6 remaining at maximal degradation (Ycon) was greater than 60%.

`C[C@@H]1C[C@@H](N(C)c2ccc3c(C4CCC(=O)NC4=O)nn(C)c3c2)CCN1c1ncc(Cl)c(Nc2ccc3c(c2)CC(=O)N3C)n1` (stereo partly drawn) [Example 25, 3-(6-(((2R,4S)-1-(5-chloro-4-((1-methyl-2-oxoindolin-5-yl)amino)pyrimidin-2-yl)-2-methylpiperidin-4-yl)(methyl)amino)-1-methyl-1H-indazol-3-yl)piperidine-2,6-dione]: the Percent BCL6 remaining at maximal degradation (Ycon) is greater than 60%.

`CO[C@@H]1CN(c2ncc(Cl)c(Nc3ccc4c(c3)CC(=O)N4C)n2)CC[C@H]1Nc1ccc2c(N3CCC(=O)NC3=O)nn(C)c2c1` [Example 156, 1-(6-(((3R,4R)-1-(5-chloro-4-((1-methyl-2-oxoindolin-5-yl)amino)pyrimidin-2-yl)-3-methoxypiperidin-4-yl)amino)-1-methyl-1H-indazol-3-yl) dihydropyrimidine-2,4(1H,3H)-dione]: the Percent BCL6 remaining at maximal degradation (Ycon) fell in the range of 20 to 60%.

In the case of `CN1C(=O)Cc2cc(Nc3nc(N4CCC(Nc5ccc6c(N7CCC(=O)NC7=O)nn(C)c6c5)CC4)ncc3Cl)ccc21` [Example 135, 1-(6-((1-(5-chloro-4-((1-methyl-2-oxoindolin-5-yl)amino)pyrimidin-2-yl)piperidin-4-yl)amino)-1-methyl-1H-indazol-3-yl)dihydropyrimidine-2,4(1H,3H)-dione], the Percent BCL6 remaining at maximal degradation (Ycon) was greater than 60%.

`C[C@@H]1CN(c2ncc(Cl)c(Nc3ccc4c(c3)CC(=O)N4C)n2)CC[C@H]1Nc1ccc2c(N3CCC(=O)NC3=O)nn(C)c2c1` [Example 141, 1-(6-(((3R,4R)-1-(5-chloro-4-((1-methyl-2-oxoindolin-5-yl)amino)pyrimidin-2-yl)-3-methylpiperidin-4-yl)amino)-1-methyl-1H-indazol-3-yl)dihydropyrimidine-2,4(1H,3H)-dione]: the Percent BCL6 remaining at maximal degradation (Ycon) was less than 20%.

Turning to `Cn1nc(N2CCC(=O)NC2=O)c2ccc(NC3CCN(c4ncc(Cl)c(Nc5ccc6c(c5)CC(=O)N6CC(F)(F)F)n4)CC3)cc21` [Example 136, 1-(6-((1-(5-chloro-4-((2-oxo-1-(2,2,2-trifluoroethyl)indolin-5-yl)amino)pyrimidin-2-yl)piperidin-4-yl)amino)-1-methyl-1H-indazol-3-yl)dihydropyrimidine-2,4(1H,3H)-dione], the Percent BCL6 remaining at maximal degradation (Ycon) was greater than 60%.

Consider `CN1C(=O)Cc2cc(Nc3nc(N4CCN(Cc5ccc6c(C7CCC(=O)NC7=O)nn(C)c6c5)CC4)ncc3Cl)ccc21` (stereo not shown) [Example 17, 3-(6-((4-(5-chloro-4-((1-methyl-2-oxoindolin-5-yl)amino)pyrimidin-2-yl)piperazin-1-yl)methyl)-1-methyl-1H-indazol-3-yl)piperidine-2,6-dione], for which the Percent BCL6 remaining at maximal degradation (Ycon) was greater than 60%.

For the molecule `CN1C(=O)Cc2cc(Nc3nc(N4CCC(Nc5ccc6c(N7CCC(=O)NC7=O)nn(C)c6c5)C(F)(F)C4)ncc3Cl)ccc21` (stereo not shown) [Example 65, 1-(6-((1-(5-chloro-4-((1-methyl-2-oxoindolin-5-yl)amino)pyrimidin-2-yl)-3,3-difluoropiperidin-4-yl)amino)-1-methyl-1H-indazol-3-yl)dihydropyrimidine-2,4(1H,3H)-dione], the Percent BCL6 remaining at maximal degradation (Ycon) was greater than 60%.

`C[C@@H]1CN(c2ncc(Cl)c(Nc3ccc4c(c3F)CC(=O)N4C)n2)CC[C@H]1Nc1ccc2c(N3CCC(=O)NC3=O)nn(C)c2c1` [Example 142, 1-(6-(((3R,4R)-1-(5-chloro-4-((4-fluoro-1-methyl-2-oxoindolin-5-yl)amino)pyrimidin-2-yl)-3-methylpiperidin-4-yl)amino)-1-methyl-1H-indazol-3-yl)dihydropyrimidine-2,4(1H,3H)-dione]: the Percent BCL6 remaining at maximal degradation (Ycon) is less than 20%.

Regarding `CN1C(=O)Cc2cc(Nc3nc(NC4CCN(c5ccc6c(C7CCC(=O)NC7=O)nn(C)c6c5)CC4)ncc3Cl)ccc21` (stereo not shown) [Example 40, 3-(6-(4-((5-Chloro-4-((1-methyl-2-oxoindolin-5-yl)amino)pyrimidin-2-yl)amino)piperidin-1-yl)-1-methyl-1H-indazol-3-yl)piperidine-2,6-dione], the Percent BCL6 remaining at maximal degradation (Ycon) was greater than 60%.

As for `C[C@H]1C(=O)N(c2ccc3c(C4CCC(=O)NC4=O)nn(C)c3c2)CC[C@@H]1N(C)c1ncc(Cl)c(Nc2ccc3c(c2)CC(=O)N3C)n1` (single isomer, unassigned) [Example 130], the Percent BCL6 remaining at maximal degradation (Ycon) is greater than 60%.

For the molecule `C[C@@H]1CN(c2ncc(Cl)c(Nc3ccc4c(c3)CC(=O)N4C)n2)CC[C@H]1Nc1ccc2c(C3CCC(=O)NC3=O)nn(C)c2c1` (stereo partly drawn) [Example 70, 3-(6-(((3R,4R)-1-(5-chloro-4-((1-methyl-2-oxoindolin-5-yl)amino)pyrimidin-2-yl)-3-methylpiperidin-4-yl)amino)-1-methyl-1H-indazol-3-yl)piperidine-2,6-dione], the Percent BCL6 remaining at maximal degradation (Ycon) was less than 20%.

`C[C@H]1C[C@@H](N(C)c2ncc(Cl)c(Nc3ccc4c(c3)CC(=O)N4C)n2)CCN1c1ccc2c(C3CCC(=O)NC3=O)nn(C)c2c1` (stereo partly drawn) [Example 20, 3-(6-((2S,4S)-4-((5-chloro-4-((1-methyl-2-oxoindolin-5-yl)amino)pyrimidin-2-yl)(methyl)amino)-2-methylpiperidin-1-yl)-1-methyl-1H-indazol-3-yl)piperidine-2,6-dione]: the Percent BCL6 remaining at maximal degradation (Ycon) lay in the range of 20 to 60%.

`CN1C(=O)Cc2cc(Nc3nc(NC4CCN(c5ccc6c(N7CCC(=O)NC7=O)nn(C)c6c5)CC4)ncc3Cl)ccc21` [Example 133, 1-(6-(4-((5-chloro-4-((1-methyl-2-oxoindolin-5-yl)amino)pyrimidin-2-yl)amino)piperidin-1-yl)-1-methyl-1H-indazol-3-yl)dihydropyrimidine-2,4(1H,3H)-dione]: the Percent BCL6 remaining at maximal degradation (Ycon) was greater than 60%.

In the case of `CO[C@@H]1CN(c2ncc(C#N)c(Nc3ccc4c(c3)CC(=O)N4C)n2)CC[C@H]1Nc1ccc2c(C3(C)CCC(=O)NC3=O)nn(C)c2c1` (stereo partly drawn) [Example 155, 2-((3R,4R)-3-methoxy-4-((1-methyl-3-(3-methyl-2,6-dioxopiperidin-3-yl)-1H-indazol-6-yl)amino)piperidin-1-yl)-4-((1-methyl-2-oxoindolin-5-yl)amino) pyrimidine-5-carbonitrile], the Percent BCL6 remaining at maximal degradation (Ycon) is 20 to 60%.

In the case of `C[C@@H]1CN(c2ncc(Cl)c(Nc3ccc4c(c3)CC(=O)N4C)n2)CC[C@H]1Nc1cc2c(cn1)c(C1CCC(=O)NC1=O)nn2C` (stereo partly drawn) [Example 86, 3-(6-(((3R,4R)-1-(5-chloro-4-((1-methyl-2-oxoindolin-5-yl)amino)pyrimidin-2-yl)-3-methylpiperidin-4-yl)amino)-1-methyl-1H-pyrazolo[4,3-c]pyridin-3-yl)piperidine-2,6-dione], the Percent BCL6 remaining at maximal degradation (Ycon) was less than 20%.

Take `CCN1C(=O)Cc2cc(Nc3nc(N4CCC(Nc5ccc6c(C7CCC(=O)NC7=O)nn(C)c6c5)CC4)ncc3Cl)ccc21` (stereo not shown) [Example 89, 3-(6-((1-(5-chloro-4-((1-ethyl-2-oxoindolin-5-yl)amino)pyrimidin-2-yl)piperidin-4-yl)amino)-1-methyl-1H-indazol-3-yl)piperidine-2,6-dione]: the Percent BCL6 remaining at maximal degradation (Ycon) is greater than 60%.

On to `C[C@H]1C[C@H](N(C)c2ccc3c(C4CCC(=O)NC4=O)nn(C)c3c2)CCN1c1ncc(Cl)c(Nc2ccc3c(c2)CC(=O)N3C)n1` (stereo partly drawn) [Example 84, 3-(6-(((2S,4R)-1-(5-chloro-4-((1-methyl-2-oxoindolin-5-yl)amino)pyrimidin-2-yl)-2-methylpiperidin-4-yl)(methyl)amino)-1-methyl-1H-indazol-3-yl)piperidine-2,6-dione], for which the Percent BCL6 remaining at maximal degradation (Ycon) is greater than 60%.
